The values that follow come from BindingDB's records for patent US20230286970 (Italfarmaco, 2023).

Some results are limits rather than exact numbers.

The term IC50 denotes the concentration at which inhibition is half-maximal. Higher therefore signals weaker potency.

In one test the target is Histone deacetylase 1 (Homo sapiens, UniProt Q13547). Kind of test: Enzymatic Activity Assay. As for the experimental part: (§1) After a period of preincubation (incubation times and temperatures vary for different isoforms and are shown in table 1) 25 μL of solution containing the substrate were added. […] Enzymatic activity on recombinant human HDAC6 and HDAC1 was evaluated (Table 2) for each synthesized compound.

For a further test, the target named is T1, Histone deacetylase 6 (Homo sapiens, UniProt Q9UBN7).
T1 sequence (Q9UBN7 whole entry): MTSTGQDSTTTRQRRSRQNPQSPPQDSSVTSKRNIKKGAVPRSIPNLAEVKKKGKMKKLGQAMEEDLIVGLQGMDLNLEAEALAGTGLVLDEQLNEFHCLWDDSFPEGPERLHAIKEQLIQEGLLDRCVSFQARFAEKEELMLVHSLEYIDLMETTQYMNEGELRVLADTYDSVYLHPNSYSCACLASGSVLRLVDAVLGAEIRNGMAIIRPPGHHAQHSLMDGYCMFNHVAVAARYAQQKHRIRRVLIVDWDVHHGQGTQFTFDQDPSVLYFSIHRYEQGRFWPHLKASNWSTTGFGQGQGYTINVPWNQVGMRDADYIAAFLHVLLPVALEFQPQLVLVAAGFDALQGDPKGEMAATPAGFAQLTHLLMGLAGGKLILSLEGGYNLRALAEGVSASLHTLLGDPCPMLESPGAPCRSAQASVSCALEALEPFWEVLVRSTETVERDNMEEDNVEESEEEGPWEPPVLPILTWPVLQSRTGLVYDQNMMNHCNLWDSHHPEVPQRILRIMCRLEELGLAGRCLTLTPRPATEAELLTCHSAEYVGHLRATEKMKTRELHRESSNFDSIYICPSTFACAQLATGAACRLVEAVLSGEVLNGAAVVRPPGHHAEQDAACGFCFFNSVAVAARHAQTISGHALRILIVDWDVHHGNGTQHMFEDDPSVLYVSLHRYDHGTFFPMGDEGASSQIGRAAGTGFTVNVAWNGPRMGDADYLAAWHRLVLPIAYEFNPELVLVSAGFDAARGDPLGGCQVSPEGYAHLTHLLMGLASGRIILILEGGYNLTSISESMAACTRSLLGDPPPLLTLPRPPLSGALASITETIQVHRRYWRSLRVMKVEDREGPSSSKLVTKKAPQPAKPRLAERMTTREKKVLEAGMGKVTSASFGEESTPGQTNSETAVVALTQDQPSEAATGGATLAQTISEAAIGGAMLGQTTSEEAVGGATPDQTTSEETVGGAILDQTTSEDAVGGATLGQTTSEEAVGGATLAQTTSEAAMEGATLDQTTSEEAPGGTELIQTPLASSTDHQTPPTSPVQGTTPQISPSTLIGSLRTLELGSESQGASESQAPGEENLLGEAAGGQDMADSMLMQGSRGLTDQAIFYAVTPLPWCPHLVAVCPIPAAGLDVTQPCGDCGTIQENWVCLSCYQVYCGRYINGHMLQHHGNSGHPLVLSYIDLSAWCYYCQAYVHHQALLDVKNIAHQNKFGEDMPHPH
Kind of test: Enzymatic Activity Assay. As for the experimental part:
as §1

Histone deacetylase 1, sequence (Q13547 whole entry, canonical isoform): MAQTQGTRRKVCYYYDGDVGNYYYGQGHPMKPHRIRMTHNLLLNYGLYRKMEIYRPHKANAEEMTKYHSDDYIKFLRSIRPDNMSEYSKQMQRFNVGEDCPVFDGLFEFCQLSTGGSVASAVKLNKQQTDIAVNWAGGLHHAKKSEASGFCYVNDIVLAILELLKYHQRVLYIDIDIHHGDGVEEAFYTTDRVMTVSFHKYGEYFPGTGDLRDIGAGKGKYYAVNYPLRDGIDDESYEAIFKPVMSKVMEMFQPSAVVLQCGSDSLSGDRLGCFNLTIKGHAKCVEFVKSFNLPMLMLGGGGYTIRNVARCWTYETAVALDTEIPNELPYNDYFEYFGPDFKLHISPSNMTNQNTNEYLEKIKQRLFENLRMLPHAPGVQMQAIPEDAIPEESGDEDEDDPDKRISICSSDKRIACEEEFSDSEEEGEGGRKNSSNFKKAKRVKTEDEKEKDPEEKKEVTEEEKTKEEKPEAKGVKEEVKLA

For `O=C1NCc2ccc(-c3nnn(Cc4c(F)cc(-c5nnc(C(F)F)o5)cc4F)n3)cc21` [US20230286970, Compound 57], the values for the IC50 against Histone deacetylase 1 and on Histone deacetylase 6 were over 200000 nM and 25 nM, respectively.
`Nc1ncnc2sc(-c3cn(Cc4cc(F)c(-c5nnc(C(F)F)o5)cc4F)nn3)cc12` [US20230286970, Compound 415] returned an IC50 against Histone deacetylase 6 of 49 nM.
In the case of `O=C1Nc2ccc(-c3nnn(Cc4ccc(-c5nnc(C(F)F)o5)cc4)n3)cc2NC12CCCCC2` [US20230286970, Compound 157], the concentration for half-maximal inhibition (IC50) is over 200000 nM on Histone deacetylase 1 and 70 nM against Histone deacetylase 6.
On to `Nc1ncc(-c2cccc(-c3nnn(Cc4ccc(-c5nnc(C(F)F)o5)cn4)n3)c2)s1` [US20230286970, Compound 38], for which the IC50 at Histone deacetylase 1 was over 200000 nM; on Histone deacetylase 6, 18 nM.
Regarding `O=C(O)c1cccc(-c2cn(Cc3ccc(-c4nnc(C(F)F)o4)cc3)nn2)c1` [US20230286970, Compound 275], the figures for the IC50 on Histone deacetylase 1 and at Histone deacetylase 6 were over 200000 nM and 373 nM, respectively.
`Nc1ccc(-c2cn(Cc3ccc(-c4nnc(C(F)F)o4)cc3)nn2)cn1` [US20230286970, Compound 52] showed an IC50 against Histone deacetylase 6 of 23 nM.
For `FC(F)c1nnc(-c2cnc(Cn3nnc(-c4cccs4)n3)nc2)o1` [US20230286970, Compound 187], the IC50 on Histone deacetylase 1 was over 200000 nM; against Histone deacetylase 6, 41 nM.
`NCc1ccc(-c2cn(Cc3c(F)cc(-c4nnc(C(F)F)o4)cc3F)nn2)cc1` [US20230286970, Compound 44]: the IC50 at Histone deacetylase 1 is 163000 nM; at Histone deacetylase 6 it was 20 nM.
For the compound `CN(C)C(=Nc1ccc(-c2cn(Cc3ccc(-c4nnc(C(F)F)o4)cc3)nn2)cc1)N(C)C` [US20230286970, Compound 217], the IC50 was over 200000 nM against Histone deacetylase 1 and 154 nM against Histone deacetylase 6.
In the same order, the values of `NCc1ccc(-c2nnn(Cc3c(F)cc(-c4nnc(C(F)F)o4)cc3F)n2)cc1` [US20230286970, Compound 33] are over 200000 nM and 14 nM.
The compound `Nc1ccc(-n2cc(Cc3ccc(-c4nnc(C(F)F)o4)cc3)nn2)cn1` [US20230286970, Compound 413] came in with an IC50 against Histone deacetylase 6 of 515 nM.
`C[C@H](c1ccc(-c2nnc(C(F)F)o2)cc1)n1cc(-c2ccc(N)nc2)nn1` [US20230286970, Compound 106]: the IC50 on Histone deacetylase 6 came out at 41 nM.
As to `O=C(O)c1cccc(-c2nnn(Cc3ccc(-c4nnc(C(F)F)o4)cc3)n2)c1` [US20230286970, Compound 260], the IC50 was over 200000 nM against Histone deacetylase 1 and 480 nM on Histone deacetylase 6.
For `NC(=O)c1cccc(-c2nnn(Cc3ccc(-c4nnc(C(F)F)o4)cn3)n2)c1` [US20230286970, Compound 29], the IC50 was over 200000 nM against Histone deacetylase 1 and 10 nM against Histone deacetylase 6.
As to `COc1ncc(NCc2ccc(-n3cc(Cc4ccc(-c5nnc(C(F)F)o5)cc4)nn3)cc2)cc1C(N)=O` [US20230286970, Compound 286], the IC50 against Histone deacetylase 1 was over 200000 nM; on Histone deacetylase 6, 99 nM.
`CN(C)c1ccc2cc(-c3cn(Cc4c(F)cc(-c5nnc(C(F)F)o5)cc4F)nn3)ccc2n1` [US20230286970, Compound 399]: the IC50 on Histone deacetylase 6 was 247 nM.
In the case of `C[C@@H](c1ccc(-c2nnc(C(F)F)o2)cc1)n1cc(-c2ccc(N)nc2)nn1` [US20230286970, Compound 255], it took 377 nM to reach half-maximal inhibition at Histone deacetylase 6 (IC50).
Regarding `Oc1ccc(-c2nnn(Cc3ccc(-c4nnc(C(F)F)o4)cc3)n2)cc1` [US20230286970, Compound 56], the IC50 on Histone deacetylase 1 was over 200000 nM; against Histone deacetylase 6 it was 25 nM.
For the compound `CCN(Cc1cn(Cc2c(F)cc(-c3nnc(C(F)F)o3)cc2F)nn1)C(=O)Nc1cccnc1OC` [US20230286970, Compound 283], the IC50 was over 200000 nM against Histone deacetylase 1 and 225 nM at Histone deacetylase 6.
The like results for `O=C1NCc2ccc(-c3nnn(Cc4ccc(-c5nnc(C(F)F)o5)cc4)n3)cc21` [US20230286970, Compound 55] were, in that order, over 200000 nM and 24 nM.
As for `Nc1ncnc2sc(-c3cn(Cc4ccc(-c5nnc(C(F)F)o5)c(F)c4F)nn3)cc12` [US20230286970, Compound 384], half-maximal inhibition against Histone deacetylase 6 (IC50) required 63 nM.
